# Test results taken from US11512053B2, “Arginine methyltransferase inhibitors and uses thereof” (priority 2013, dated 2022).
# Where a name gives a salt, the structure may show the parent alone. Read-outs that look alike come from different tables or passages of the source.
# What was measured:
# [1] = test system: mono-methyl arginine in RKO cells; test: RKO Methylation Assay, In Cell Western (ICW) for detection of mono-methyl arginine and DNA content; format: cell-based; conditions: for EC30: Homo sapiens, RKO, 72 h
# Summary of the method: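 RKO cells were treated with compound for 72 hours at 37 °C, methanol-fixed and stained overnight at 4 °C with anti-mono-methyl arginine (1:200), with DRAQ5 for DNA. Odyssey 800/700 nm intensity ratio was normalized to DMSO and 20 μM reference-compound controls. EC30 from triplicate nine-point curves.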
# [2] = biological target: full-length human PRMT1 isoform 1 (GST-tagged) (Homo sapiens, UniProt Q99873); test: PRMT1 Biochemical Assay (3H-SAM Flashplate, peptide substrate)
# Chain of full-length human PRMT1 isoform 1 (GST-tagged) (Q99873 with tags, fused parts or gaps): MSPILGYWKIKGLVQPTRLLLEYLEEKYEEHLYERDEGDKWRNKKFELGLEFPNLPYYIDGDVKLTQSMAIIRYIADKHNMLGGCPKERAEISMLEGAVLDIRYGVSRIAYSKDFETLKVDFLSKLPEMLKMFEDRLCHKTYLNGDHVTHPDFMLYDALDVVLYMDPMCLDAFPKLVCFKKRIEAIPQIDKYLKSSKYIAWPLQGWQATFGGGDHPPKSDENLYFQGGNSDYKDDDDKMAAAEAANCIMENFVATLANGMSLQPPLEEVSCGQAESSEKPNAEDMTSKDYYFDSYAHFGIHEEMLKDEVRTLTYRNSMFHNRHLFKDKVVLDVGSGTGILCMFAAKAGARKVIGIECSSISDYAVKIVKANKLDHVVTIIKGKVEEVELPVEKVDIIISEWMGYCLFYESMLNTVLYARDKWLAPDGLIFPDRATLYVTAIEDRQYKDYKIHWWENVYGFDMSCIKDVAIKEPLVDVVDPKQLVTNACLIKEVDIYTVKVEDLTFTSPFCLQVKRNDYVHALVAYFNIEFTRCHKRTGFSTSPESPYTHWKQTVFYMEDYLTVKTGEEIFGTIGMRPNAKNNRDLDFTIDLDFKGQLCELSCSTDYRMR
# Summary of the method: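 Tritiated methyl transfer from 3H-SAM onto biotinylated peptide, captured on streptavidin Flashplates and counted. Baculovirus-expressed GST-PRMT1 and compound were preincubated 30 min at room temperature in Bicine buffer pH 7.6. Cold SAM at 300 uM final ended the reaction.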
# [3] = RKO cells, 72 hours incubation, mono-methyl arginine signal normalised to DNA content, single experiment or average of multiple experiments, read-out: In Cell Western EC30
# [4] = RKO cells, 72 hours compound incubation, mono-methyl arginine signal normalised to DNA content (DRAQ5), percent activation vs 20 μM reference compound
# [5] = single experiment or average of multiple experiments
# [6] = RKO cells, 72 hours compound incubation, mono-methyl arginine signal normalised to DNA content (DRAQ5), percent activation vs 20 μM reference compound, read-out: In Cell Western EC30
"IC50 [2, 5]",IC50 [2],SMILES,"EC30 [1, 3]","In Cell Western EC30 [1, 4]","EC30 [1, 6]","EC30 ([1]; read-out: In Cell Western EC30, RKO cells, 72 hours compound incubation, mono-methyl arginine signal normalised to DNA content (DRAQ5), percent activation vs 20 μM reference compound)","EC30 ([1]; read-out: In Cell Western EC30, RKO cells, 72 hours incubation, mono-methyl arginine signal normalised to DNA content, single experiment or average of multiple experiments)"
0.0119 µM,< 0.1 µM,CNCCN(C)Cc1c[nH]nc1C1CCC2(CCCCC2)OC1 (stereo not drawn) [Compound 62],0.169 µM,,< 3 µM,,
0.0078 µM,< 0.1 µM,CNCCN(C)Cc1c[nH]nc1C1CCC(Oc2ccccc2)CC1 (stereo not drawn) [Compound 67],0.081 µM,,< 3 µM,,
0.008 µM,< 0.1 µM,CNCCN(C)Cc1c[nH]nc1C1CCC2(CCOC2)CC1 (stereo not drawn) [Compound 54],0.087 µM,,< 3 µM,,
0.0047 µM,< 0.1 µM,CNCCN(C)Cc1c[nH]nc1C1CCC(C)(C)CC1 [Compound 52],0.041 µM,,,,
0.0265 µM,< 0.1 µM,CNCCN(C)Cc1c[nH]nc1C1CCC(OCCOC)CC1 (stereo not drawn) [Compound 58],0.978 µM,,,,
0.0209 µM,< 0.1 µM,CNCCN(C)Cc1c[nH]nc1C1CCC(C)(C)C(C(=O)NCc2ccccc2)C1 (stereo not drawn) [Compound 92],2.17 µM,,< 3 µM,,
0.00935 µM,< 0.1 µM,CNCCN(C)Cc1c[nH]nc1C1CCC(C)(C)C(COCC(C)C)C1 (stereo not drawn) [Compound 95],0.122 µM,,< 3 µM,,
0.0086 µM,< 0.1 µM,CNCCN(C)Cc1c[nH]nc1C1CCC(C(C)C)CC1 (stereo not drawn) [Compound 50],0.027 µM,,< 3 µM,,
0.0205 µM,< 0.1 µM,CNCCN(C)Cc1c[nH]nc1C1CCC(COC(C)C)(COC(C)C)CC1 [Compound 61],0.149 µM,,< 3 µM,,
0.00965 µM,< 0.1 µM,CNCCN(C)Cc1c[nH]nc1C1CCC2(CCC(C)(C)CC2)OC1 (stereo not drawn) [Compound 65],0.0775 µM,,< 3 µM,,
0.564 µM,0.101 to 1 µM,CCOCC1CC(c2n[nH]cc2CN(C)CCNC)CC(COCC)C1(C)C (stereo not drawn) [Compound 87],2.53 µM,,< 3 µM,,

# Second part, the compound before the results:
SMILES,"IC50 [2, 5]",IC50 [2],"EC30 [1, 3]","In Cell Western EC30 [1, 4]","EC30 [1, 6]","EC30 ([1]; read-out: In Cell Western EC30, RKO cells, 72 hours compound incubation, mono-methyl arginine signal normalised to DNA content (DRAQ5), percent activation vs 20 μM reference compound)","EC30 ([1]; read-out: In Cell Western EC30, RKO cells, 72 hours incubation, mono-methyl arginine signal normalised to DNA content, single experiment or average of multiple experiments)"
CNCCN(C)Cc1c[nH]nc1C1CCN(C(=O)C(C)C)CC1 [Compound 34],0.02 µM,,1.15 µM,A (“A” indicates an EC30 ≤ 3.00 μM),,,
"CNCCN(C)Cc1c[nH]nc1C1CCN(C(=O)CC(C)C)CC1 [Compound 40, 3-methyl-1-(4-(4-((methyl(2-(methylamino)ethyl)amino)methyl)-1H-pyrazol-3-yl)piperidin-1-yl)butan-1-one]",0.02 µM,,0.87 µM,,< 3 µM,,
CNCCN(C)Cc1c[nH]nc1C1CCN(C)CC1 [Compound 41],0.01 µM,,> 20 µM,C (“C” indicates an EC30 > 12.01 μM),,,
CN(CCN)Cc1c[nH]nc1C1CCC2(CCCC2)CC1 [Compound 45],0.0028 µM,< 0.1 µM,0.054 µM,,< 3 µM,,
CN(CCN)Cc1c[nH]nc1C1=CCOCC1 [Compound 10],0.39 µM,,> 20 µM,C (“C” indicates an EC30 > 12.01 μM),,,
"CN(CCN)Cc1c[nH]nc1CCc1ccc(F)cc1 [Compound 23, N^1-((3-(4-fluorophenethyl)-1H-pyrazol-4-yl)methyl)-N^1-methylethane-1,2-diamine]",0.01 µM,,1.61 µM,A (“A” indicates an EC30 ≤ 3.00 μM),,,
CC(C)c1n[nH]cc1CN(C)CCN [Compound 21],1.49 µM,,> 20 µM,C (“C” indicates an EC30 > 12.01 μM),,,
CNCCN(C)Cc1cn(C)nc1C1CCC2(CCCC2)CC1 [Compound 47],0.0043 µM,< 0.1 µM,0.052 µM,,,,
CNCCN(C)Cc1c[nH]nc1C1CCC2(CCCCC2)CC1 [Compound 46],0.0079 µM,< 0.1 µM,0.008 µM,,< 3 µM,,
CN(CCN)Cc1c[nH]nc1/C=C/Cc1ccccc1 [Compound 24],0.02 µM,,2.4 µM,A (“A” indicates an EC30 ≤ 3.00 μM),,,
CN(CCN)Cc1c[nH]nc1C1CCCCC1 [Compound 22],0.01 µM,,1.24 µM,A (“A” indicates an EC30 ≤ 3.00 μM),,,
CNCCN(C)Cc1c[nH]nc1C1CCN(C(=O)Cc2ccccc2)CC1 [Compound 32],0.02 µM,,2.35 µM,A (“A” indicates an EC30 ≤ 3.00 μM),,,
"CC1CCC(c2n[nH]cc2CN(C)CCN)CC1 (stereo not drawn) [Compound 37, N^1-methyl-N^1-((3-(4-methylcyclohexyl)-1H-pyrazol-4-yl)methyl)ethane-1,2-diamine]",0.01 µM,,0.26 µM,A (“A” indicates an EC30 ≤ 3.00 μM),,,
"CNCCN(C)Cc1ccnn1C1CCC2(CCCC2)CC1 [Compound 275, Methyl[2-(methylamino)ethyl][(1-[spiro[4.5]decan-8-yl]-1H-pyrazol-5-yl)methyl]amine trifluoroacetate]",0.00462 µM,< 0.1 µM,,,,< 3 µM,0.084 µM
